Results reported in paper PMC13503280, “A pharmacological modality to sequester homomeric proteins” (Nature Chemical Biology, 2026).
Blank lines part the entries; values can stand above or below the compound they belong to.

Columns and labels:
Keap1 and BCL6 [1] = molecular target: T1, Keap1 and BCL6 (Homo sapiens, UniProt P41182+Q14145); assay: WB of Keap1 and BCL6 in OCI-AML2 cells (hetero-PINCH); format: cell-based; set-up: endogenous in cells; host or cells: OCI-AML2; settings: 20 h
Description: (§1) Cells were incubated with DMSO at 0.1% or with compound in concentrations ranging 10–20,000 nM for 20 h unless indicated differently. Following incubation, lysis was performed in RIPA buffer and the samples were measured for total protein quantification by BCA assay (Thermo Fisher Scientific, 23225). Then, 20–40 μg of each sample was loaded and run on an SDS–PAGE gel, before transferring onto a nitrocellulose membrane using a Trans-Blot Turbo system (Bio-Rad) and blocking using a 5% BSA in TBS-T (w/v) solution for 1 h at room temperature. Incubation with primary antibodies (mouse anti-BCL-6 (sc-7388, Santa Cruz, 1:500; overnight at 4 °C), mouse anti-Keap1 (sc-365626, Santa Cruz, 1:500; overnight at 4 °C), rabbit anti-LDHA (4H18L6, Thermo Fisher, 1:1,000; overnight at 4 °C), mouse anti-NQO2 (sc-271665, Santa Cruz, 1:500; overnight at 4 °C), rabbit anti-c-Myc (5605, Cell Signaling, 1:1,000; overnight at 4 °C) and mouse anti-β-actin (3700, Cell Signaling, 1:1,000; 1 h at room temperature) was performed and then the membranes were washed and incubated with a horseradish-peroxidase-conjugated secondary antibody (mouse 7076/rabbit 7074, Cell Signaling) at room temperature for 1 h. Imaging of the chemiluminescence signal was performed using a ChemiDoc XRS+ instrument (Bio-Rad). Primary band quantifications were normalized against β-actin bands.

Keap1 = Keap1 (Homo sapiens, UniProt Q14145); assay: WB of Keap1 in HEK 293 cells (hetero-PINCH); format: cell-based; set-up: endogenous in cells; host or cells: HEK 293 (ATCC CRL-1573); settings: HEK 293 cells (does not express BCL6), 20 h
Description: as §1

Keap1 and BCL6 [2] = molecular target: T1, Keap1 and BCL6; assay: WB of Keap1 and BCL6 in Mino cells (hetero-PINCH); format: cell-based; set-up: Mino cells that express high levels of BCL6; endogenous in cells; host or cells: Mino; OCI-AML2; settings: 20 h
Description: as §1

LDHA [3] = molecular target: T2, LDHA (Homo sapiens, UniProt P00338); assay: Immunostaining of LDHA in U2OS cells; format: cell-based; set-up: endogenous in cells; host or cells: U2OS (ATCC HTB-96); settings: 5µM, 20 hours
Description: For spinning disk confocal microscopy, cells were allowed to adhere to a 14-mm glass-bottom plate (MatTek P35G-1.5-14-C), followed by fixation with 3.7% formaldehyde for 5 min and permeabilization with 0.1% Triton X-100 for 10 min. The cells were then blocked with 5% BSA for 60 min at room temperature. Cells were stained with primary antibody, at a concentration of 1:100, for 3 h at room temperature and were then subjected to a secondary antibody conjugated to Alexa Fluor, at a concentration of 1:100–500, for 1 h at room temperature. Lastly, cells were also stained with DAPI for 10 min at room temperature.

LDHA [4] = molecular target: T2, LDHA; assay: DLS of recombinant LDHA; format: biochemical; set-up: The gene encoding full-length WT human LDHA was cloned into pET28; His6 tag followed by a tobacco etch virus protease cleavage site (N); made in house; host or cells: Escherichia coli BL21(DE3); settings: room temperature, over time
Description: DLS samples were prepared in the respective protein’s elution buffer, to which 0.01% Tween was added, along with the compound from a DMSO stock to obtain a final DMSO concentration of 2%. Samples were prepared at room temperature and measured at a constant temperature of 25 °C. All samples were passed through 0.1-μm filters and then placed in a clear-bottom black 384-well plate. DLS data were recorded using a DynaproPlate Reader III (Wyatt Technology). Data were processed with the supplied DYNAMICS software.

[5] = molecular target: T3, recombinant BCL6 BTB domain (Homo sapiens, UniProt P41182); assay: Intact protein LC–MS labeling of BCL6 BTB domain; format: binding; settings: 2 μM protein, 10 μM compound, incubation 90 min
T3 construct: The BCL6 BTB domain (5–129) was cloned into the pET28-bdSumo vector; His–bdSumo (N, cleaved yes); made in house; host or cells: E. coli BL21(DE3) (as described for Keap1 BTB)
Description: A covalent inhibitor of BCL6 that irreversibly binds a tyrosine residue in the BTB domain dimeric interface was previously reported. […] Importantly, the linker had to be long enough to minimize potential steric clashes between bridged homodimers yet short enough to forbid intramolecular binding of subunits from the same homodimer.
Extended Data Fig. 1 SAR of BCL6 targeting PINCHs. a. […] Representative results from 3 independent experiments, and c. These compounds’ structures. Source data

BCL6(1–275)–GFP = molecular target: T4, BCL6(1–275)–GFP (Homo sapiens, UniProt P41182); assay: BCL6(1–275)–GFP puncta in HEK 293 cells; format: cell-based; settings: HEK 293 cells overexpressing BCL6(1–275)–GFP
T4 construct: HEK 293 cells expressing GFP fused to BCL6 (residues 1–275); host or cells: HEK 293
Description: Automatic aggregate segmentation was conducted using the surface module with manual threshold fixed for all images of the same experiment (default 2-pixel smoothing, background subtraction with 0.9-μm largest sphere, morphological split with 0.5-μm seed point diameter). Analysis was conducted per cell by manually selecting regions covering the individual cell and not overlapping with neighboring cells.

HEK 293 cells = assay: Viability measurements, HEK 293 cells; format: cell-based; settings: HEK 293 cells (lack BCL6 expression), 72 h
Description: Cells were seeded in a transparent-bottom, black 96-well plate, at 15,000 cells per well in sixfold replications. in 90 µl of medium and left to adhere for at least 4 h. The cells were then treated with the respective compound by adding 10 µl of medium–-compound mixture for a final volume of 100 µl in each well. Cell-Titer blue reagent was used to measure viability according to the manufacturer’s instructions. Plate reader measurements were performed on a Tecan Spark Control 10 M fluorescence system.

Keap1, sequence (Q14145 whole entry): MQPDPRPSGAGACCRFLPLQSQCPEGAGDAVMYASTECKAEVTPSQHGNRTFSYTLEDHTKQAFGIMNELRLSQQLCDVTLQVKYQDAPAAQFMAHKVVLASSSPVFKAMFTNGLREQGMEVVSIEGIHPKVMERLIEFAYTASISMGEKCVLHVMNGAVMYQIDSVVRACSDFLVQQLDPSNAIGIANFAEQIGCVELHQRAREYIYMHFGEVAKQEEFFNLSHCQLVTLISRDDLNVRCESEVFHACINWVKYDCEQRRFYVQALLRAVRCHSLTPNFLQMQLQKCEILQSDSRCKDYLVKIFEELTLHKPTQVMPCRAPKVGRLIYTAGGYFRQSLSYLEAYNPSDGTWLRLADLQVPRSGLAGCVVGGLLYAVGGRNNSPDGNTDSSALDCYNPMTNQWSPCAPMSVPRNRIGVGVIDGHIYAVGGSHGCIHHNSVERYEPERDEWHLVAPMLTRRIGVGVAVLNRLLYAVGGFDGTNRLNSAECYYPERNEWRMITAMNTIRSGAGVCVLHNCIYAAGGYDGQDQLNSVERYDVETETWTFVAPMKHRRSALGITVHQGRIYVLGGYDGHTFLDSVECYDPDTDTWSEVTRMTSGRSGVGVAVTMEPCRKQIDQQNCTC

Compound: COc1cc(Nc2cc(NCc3cccc(S(=O)(=O)F)c3)ccc2Cl)cc2cc(OCC(=O)NCCOCCOCCOCCOCCOCCOCCOCCOCCOCCOCCOCCOCCNC(=O)[C@]34CCC(C)(C)C[C@H]3[C@H]3C(=O)C=C5[C@@]6(C)C=C(C#N)C(=O)C(C)(C)[C@@H]6CC[C@@]5(C)[C@]3(C)CC4)c(=O)n(C)c12 [EL230]
Keap1 and BCL6 levels (WB) (Keap1 and BCL6 [1]): Keap1 and BCL6 were downregulated simultaneously
Keap1 level (WB) (Keap1): Keap1 remained unchanged
Keap1 and BCL6 levels in soluble/insoluble phase (WB) (Keap1 and BCL6 [2]): reduction in both Keap1 and BCL6 levels in the soluble phase

LDHA localization (immunostaining) (LDHA [3]): no effect on LDHA localization
formation of larger species (DLS) (LDHA [4]): formation of larger species over time
Compound: Cc1nc2ccc(NC(=O)CC(NC(=O)CCCc3ccc(CC(C(=O)O)C(=O)O)cc3)C(=O)NCCOCCOCCOCCOCCNC(=O)C(CC(=O)Nc3ccc4nc(C)sc4c3)NC(=O)CCCc3ccc(CC(C(=O)O)C(=O)O)cc3)cc2s1 (centres unmarked) [OS-47B]

Compound: CNC(=O)COc1cc2cc(Nc3cc(NCc4cccc(S(=O)(=O)F)c4)ccc3Cl)cc(OC)c2n(C)c1=O [w8001]
labeling of recombinant BCL6 BTB domain by intact protein LC–MS [5]: 100%
BCL6–GFP puncta formation (BCL6(1–275)–GFP): no such puncta
effect on viability (HEK 293 cells): no compound affected the viability
